Measurements as given in patent US20250295646A1, “METHODS OF USE OF T-TYPE CALCIUM CHANNEL MODULATORS” (Praxis Precision Medicines, Inc., priority 2022, published 2025).

Tests used:
[1] = Within-participant escalating dose trial Part A (5-20 mg): pharmacokinetics; assay type: in vivo, human; conditions: single 5 mg dose, healthy volunteers
Experimental: In Part A, an open label trial was conducted.

[2] = clinical; conditions: both, human, plasma, oral, 120 mg
Experimental: Each participant completed 3 study periods: Screening, Treatment period (12 or 31 days), and Safety follow-up.
Participants were healthy males and females between the ages of 18 and 55 years old.
In Part B, a randomized controlled trial was conducted.

Q: Which results are given for `CC(C)(C)NC(=O)CN1CCC(CNC(=O)c2cc(F)cc(Cl)c2)CC1` [compound of formula (I), N-((1-(2-(tert-butylamino)-2-oxoethyl)piperidin-4-yl)methyl)-3-chloro-5-fluorobenzamide]?
A: time by which plasma concentrations were quantifiable [1]: ≤ 0.50 h; AUC [2]: ≥ 4650 ng·h/mL; Cmax [2]: ≥ 390 ng/mL
